Source: ChEMBL document CHEMBL5550219, “Distinct Amino Acid-Based PROTACs Target Oncogenic Kinases for Degradation in Non-Small Cell Lung Cancer (NSCLC)” (J Med Chem, 2024)
Activity calls are given as the source filed them. The calls are words filed in the database; no cut-off is given here.

Columns and labels:
[1] = system: NCI-H3122; assay: Induction of apoptosis in human NCI-H3122 cells assessed as increase in late apoptotic cells incubated for 48 hrs by Annexin V-FITC/PI staining based flow cytometry; type: functional, cell-based; details: dose 5-10 µM
[2] = system: NCI-H3122; assay: Induction of apoptosis in human NCI-H3122 cells assessed as increase in early apoptotic cells incubated for 48 hrs by Annexin V-FITC/PI staining based flow cytometry; type: functional, cell-based; details: dose 5-10 µM
[3] = Tmax in mouse at 2 mg/kg, iv measured for 12 hrs by HPLC analysis; type: ADME, organism-based; details: in vivo
[4] = system: SH-SY5Y; assay: Effect on ALK F1174L mutant in human SH-SY5Y cells upto 20 uM incubated for 48 hrs by immunoblot analysis; type: functional, cell-based
[5] = […] measured for 12 hrs by HPLC analysis; type: ADME, organism-based; details: in vivo
[6] = system: NCI-H1975; assay: Induction of cell cycle arrest at G1 phase in human NCI-H1975 cells at 10 uM incubated for 72 hrs by flow cytometry (reference value: 44.5 +/- 1.5 %); type: functional
[7] = system: PC-9; assay: Effect on EGFR del19 mutant expression in human PC-9 cells upto 20 uM incubated for 72 hrs by immunoblot analysis; type: functional, cell-based
[8] = Half life in mouse at 50 mg/kg, ip measured for 12 hrs by HPLC analysis; type: ADME, organism-based; details: in vivo
[9] = Cmax in mouse at 2 mg/kg, iv measured for 12 hrs by HPLC analysis; type: ADME, organism-based; details: in vivo
[10] = system: NCI-H1975; assay: Induction of apoptosis in human NCI-H1975 cells assessed as increase in early apoptotic cells incubated for 72 hrs by Annexin V-FITC/PI staining based flow cytometry; type: functional, cell-based; details: dose 10-20 µM
[11] = system: A549; assay: Effect on wild-type EGFR expression in human A549 cells upto 20 uM incubated for 72 hrs by immunoblot analysis; type: functional, cell-based
[12] = system: NCI-H1975; assay: Induction of cell cycle arrest at S phase in human NCI-H1975 cells at 10 uM incubated for 72 hrs by flow cytometry (reference value: 12.1 +/- 0.7 %); type: functional
[13] = system: HEK-293T; assay: Inhibition of cell viability in HEK293T cells upto 20 uM incubated for 48 hrs by CCK8 assay; type: toxicity, cell-based; details: human
[14] = AUC (0 to t) in mouse at 2 mg/kg, iv measured for 12 hrs by HPLC analysis; type: ADME, organism-based; details: in vivo
[15] = system: NCI-H1975; assay: Induction of cell cycle arrest at G2 phase in human NCI-H1975 cells at 20 uM incubated for 72 hrs by flow cytometry (reference value: 43.4 +/- 1.5 %); type: functional
[16] = system: NCI-H3122; assay: Induction of cell cycle arrest at G2 phase in human NCI-H3122 cells at 10 uM incubated for 48 hrs by flow cytometry (reference value: 9.4 +/- 0.5 %); type: functional
[17] = system: NCI-H3122; assay: Induction of cell cycle arrest at S phase in human NCI-H3122 cells at 10 uM incubated for 48 hrs by flow cytometry (reference value: 25.7 +/- 0.4 %); type: functional
[18] = system: NCI-H1975; assay: Induction of apoptosis in human NCI-H1975 cells assessed as increase in late apoptotic cells incubated for 72 hrs by Annexin V-FITC/PI staining based flow cytometry; type: functional, cell-based; details: dose 10-20 µM
[19] = system: NCI-H3122; assay: Induction of cell cycle arrest at G1 phase in human NCI-H3122 cells at 5 uM incubated for 48 hrs by flow cytometry (reference value: 64.9 +/- 0.6 %); type: functional
[20] = Cmax in mouse at 50 mg/kg, ip measured for 12 hrs by HPLC analysis; type: ADME, organism-based; details: in vivo
[21] = system: NCI-H1975; assay: Inhibition of cell viability in human NCI-H1975 cells harboring sgGID4 incubated for 72 hrs by CCK8 assay; type: functional, cell-based
[22] = system: NCI-H3122; assay: Inhibition of cell viability in human NCI-H3122 cells incubated for 48 to 72 hrs by CCK8 assay
[23] = system: NCI-H3122; assay: Inhibition of cell viability in human NCI-H3122 cells harboring sgGID4 incubated for 48 hrs by CCK8 assay; type: functional, cell-based
[24] = system: NCI-H3122; assay: Induction of cell cycle arrest at G2 phase in human NCI-H3122 cells at 5 uM incubated for 48 hrs by flow cytometry (reference value: 9.4 +/- 0.5 %); type: functional
[25] = system: NCI-H1975; assay: Induction of cell cycle arrest at S phase in human NCI-H1975 cells at 20 uM incubated for 72 hrs by flow cytometry (reference value: 12.1 +/- 0.7 %); type: functional
[26] = system: NCI-H1299; assay: Effect on wild-type EGFR expression in human NCI-H1299 cells upto 20 uM incubated for 72 hrs by immunoblot analysis; type: functional, cell-based
[27] = system: NCI-H1975; assay: Inhibition of cell viability in human NCI-H1975 cells incubated for 48 to 72 hrs by CCK8 assay
[28] = system: SK-N-BE(2); assay: Effect on wild-type ALK in human SK-N-BE(2) cells upto 20 uM incubated for 48 hrs by immunoblot analysis; type: functional, cell-based
[29] = AUC (0 to t) in mouse at 50 mg/kg, ip measured for 12 hrs by HPLC analysis; type: ADME, organism-based; details: in vivo
[30] = system: NCI-H1975; assay: Induction of cell cycle arrest at G1 phase in human NCI-H1975 cells at 20 uM incubated for 72 hrs by flow cytometry (reference value: 44.5 +/- 1.5 %); type: functional
[31] = Half life in mouse at 2 mg/kg, iv measured for 12 hrs by HPLC analysis; type: ADME, organism-based; details: in vivo
[32] = system: NCI-H1975; assay: Induction of cell cycle arrest at G2 phase in human NCI-H1975 cells at 10 uM incubated for 72 hrs by flow cytometry (reference value: 43.4 +/- 1.5 %); type: functional
[33] = Tmax in mouse at 50 mg/kg, ip measured for 12 hrs by HPLC analysis; type: ADME, organism-based; details: in vivo
[34] = system: NCI-H3122; assay: Induction of cell cycle arrest at G1 phase in human NCI-H3122 cells at 10 uM incubated for 48 hrs by flow cytometry (reference value: 64.9 +/- 0.6 %); type: functional
[35] = system: NCI-H3122; assay: Induction of cell cycle arrest at S phase in human NCI-H3122 cells at 5 uM incubated for 48 hrs by flow cytometry (reference value: 25.7 +/- 0.4 %); type: functional

- Tmax [3]: 4.98 min
- bioavailability [5]: 53.2%
- half-life [8]: 5.18 h
- Cmax [9]: 3720 ng/mL
- AUC(0-t) at 12 h [14]: 6080 ng·h/mL
- Cmax [20]: 33000 ng/mL
- IC50 [22]: 0.16 µM
- IC50 [27]: 8.8 µM
- AUC(0-t) at 12 h [29]: 80800 ng·h/mL
- half-life [31]: 2.87 h
- Tmax [33]: 0.5 h
Compound: COc1cc(N2CCN(C(=O)CCOCCOCCOCCNC(=O)[C@@H]3CCCN3)CC2)ccc1Nc1ncc(Cl)c(Nc2ccccc2P(C)(C)=O)n1
- Activity [1]: Dose-Dependent Effect
- Activity [2]: Dose-Dependent Effect
- Activity [4]: inactive
- Activity [6]: 57.3%
- Activity [7]: inactive
- Activity [10]: Dose-Dependent Effect
- Activity [11]: inactive
- Activity [12]: 10.2%
- Activity [13]: Non-Toxic
- Activity [15]: 15.9%
- Activity [16]: 5.5%
- Activity [17]: 3.9%
- Activity [18]: Dose-Dependent Effect
- Activity [19]: 84.2%
- inhibition [21]: inactive
- inhibition [23]: inactive
- Activity [24]: 8.1%
- Activity [25]: 5.7%
- Activity [26]: inactive
- Activity [28]: inactive
- Activity [30]: 78.4%
- Activity [32]: 32.5%
- Activity [34]: 90.4%
- Activity [35]: 7.3%
